Publication PMC7587356, “High-Throughput Screening for Inhibitors of the SARS-CoV-2 Protease Using a FRET-Biosensor” (Molecules, 2020)
Counter-ions that a name gives are not always drawn. Like-named read-outs stand apart in the source and are kept apart here.

Biological target: SARS-CoV-2 3CLpro (Severe acute respiratory syndrome coronavirus 2, UniProt P0DTD1)
Experiment: biochemical
Type: biochemical
Parameters: Replicate_1 / Replicate_2 / mean / mean (LOPAC_screen_w_protease): unit not given here
Conditions: for inhibition at 5 µM: 4 h; for mean (LOPAC screen with protease) / Replicate_1 (LOPAC screen with protease) / Replicate_2 (LOPAC screen with protease): primary screen at 5 µM
[1] = sheet LOPAC_screen_w_protease, primary screen of LOPAC1280 at 5 µM with protease, mean of the two replicates, read-out: mean
[2] = sheet LOPAC_screen_w_protease, primary screen of LOPAC1280 at 5 µM with protease, replicate 1, read-out: Replicate_1
[3] = sheet LOPAC_screen_w_protease, primary screen of LOPAC1280 at 5 µM with protease, replicate 2, read-out: Replicate_2
[4] = sheet LOPAC_screen_w_protease, mean of two replicates
[5] = sheet LOPAC_screen_w_protease, replicate 1
[6] = sheet LOPAC_screen_w_protease, replicate 2
[7] = sheet LOPAC_screen_w_protease, LOPAC1280 primary screen with protease, 5 µM compound, mean of the two replicates
[8] = sheet LOPAC_screen_w_protease, LOPAC1280 primary screen with protease, 5 µM compound, replicate 1
[9] = sheet LOPAC_screen_w_protease, LOPAC1280 primary screen with protease, 5 µM compound, replicate 2
[10] = sheet LOPAC_screen_w_protease, LOPAC1280 primary screen with protease, 5 µM compound, mean of the two replicates, read-out: mean
[11] = sheet LOPAC_screen_w_protease, LOPAC1280 primary screen with protease, 5 µM compound, replicate 1, read-out: Replicate_1
[12] = sheet LOPAC_screen_w_protease, LOPAC1280 primary screen with protease, 5 µM compound, replicate 2, read-out: Replicate_2

## N=C(NCCC[C@H](N)C(=O)O)N[N+](=O)[O-] [NG-Nitro-L-arginine]
[1]
  inhibition at 5 µM: 3.68%
[2]
  inhibition at 5 µM: 2.33%
[3]
  inhibition at 5 µM: 5.04%

## Cl.O=C(O)C1=CCCN(CCON=C(c2ccccc2)c2ccccc2)C1 [NO-711 hydrochloride]
  Replicate_1: 1.057
  Replicate_2: -0.5134
  mean: 0.272

## CCCCN1CCC(n2c(=O)[nH]c3ccccc32)CC1.O=C(O)C(=O)O [NS 521 oxalate]
Sheet LOPAC_screen_w_protease, primary screen of LOPAC1280 at 5 µM with protease, mean of the two replicates
  mean: 3.504
Sheet LOPAC_screen_w_protease, primary screen of LOPAC1280 at 5 µM with protease, replicate 1
  Replicate_1: 2.6467
Sheet LOPAC_screen_w_protease, primary screen of LOPAC1280 at 5 µM with protease, replicate 2
  Replicate_2: 4.361

## O=c1onc2n1-c1cc(Br)ccc1OC2 [NS 2028]
  Replicate_1: 5.339
  Replicate_2: 3.612
  mean: 4.476

## O=c1[nH]c2cc(C(F)(F)F)ccc2n1-c1cc(C(F)(F)F)ccc1O [NS-1619]
[4]
  mean (LOPAC screen with protease): 7.54
[5]
  Replicate_1 (LOPAC screen with protease): 6.544
[6]
  Replicate_2 (LOPAC screen with protease): 8.536

## CN(C)C(N)=NCCC[C@H](N)C(=O)O.Cl [N^G,N^G-Dimethylarginine hydrochloride]
Sheet LOPAC_screen_w_protease, LOPAC1280 at 5 µM, mean of two replicates
  mean: 0.9307
Sheet LOPAC_screen_w_protease, LOPAC1280 at 5 µM, replicate 1
  Replicate_1: 2.142
Sheet LOPAC_screen_w_protease, LOPAC1280 at 5 µM, replicate 2
  Replicate_2: -0.2808

## COc1ccccc1N1CCN(CC(O)COc2cccc3ccccc23)CC1.Cl.Cl (stereo not drawn) [Naftopidil dihydrochloride]
[7]
  mean: 6.057
[8]
  Replicate_1: 7.362
[9]
  Replicate_2: 4.753

## Oc1ccc2c3c1O[C@H]1[C@@H](O)CC[C@@]4(O)[C@@H](C2)N(CC2CCC2)CC[C@]314 [Nalbuphine hydrochloride]
read-out: Replicate_1
  inhibition at 5 µM: 4.1%
read-out: Replicate_2
  inhibition at 5 µM: 4.27%
read-out: mean
  inhibition at 5 µM: 4.19%

## CCn1cc(C(=O)[O-])c(=O)c2ccc(C)nc21.[Na+] [Nalidixic acid sodium]
[7]
  mean: 4.611
[8]
  Replicate_1: 4.1091
[9]
  Replicate_2: 5.113

## C=CCN1CC[C@]23c4c5ccc(O)c4O[C@@H]2/C(=N/N=C2\CC[C@@]4(O)C6Cc7ccc(O)c8c7[C@@]4(CCN6CC=C)[C@@H]2O8)CC[C@@]3(O)C1C5.Cl.Cl [Naloxonazine dihydrochloride]
[4]
  mean (LOPAC screen with protease): 7.252
[5]
  Replicate_1 (LOPAC screen with protease): 6.395
[6]
  Replicate_2 (LOPAC screen with protease): 8.109

## C=CCN1CC[C@]23c4c5ccc(O)c4O[C@H]2/C(=N/NC(=O)c2ccccc2)CC[C@@]3(O)[C@H]1C5 [Naloxone benzoylhydrazone]
read-out: Replicate_1
  inhibition at 5 µM: 2.85%
read-out: Replicate_2
  inhibition at 5 µM: 4.95%
read-out: mean
  inhibition at 5 µM: 3.9%

## C=CCN1CC[C@]23c4c5ccc(O)c4O[C@H]2C(=O)CC[C@@]3(O)[C@H]1C5 [Naloxone hydrochloride]
[1]
  inhibition at 5 µM: 4%
[2]
  inhibition at 5 µM: 3.91%
[3]
  inhibition at 5 µM: 4.09%

## Oc1ccc2c3c1O[C@H]1c4oc5ccccc5c4C[C@@]4(O)[C@@H](C2)N(CC2CC2)CC[C@]314 [Naltriben methanesulfonate]
read-out: Replicate_1
  inhibition at 5 µM: 4.4%
read-out: Replicate_2
  inhibition at 5 µM: 3%
read-out: mean
  inhibition at 5 µM: 3.7%

## Oc1ccc2c3c1O[C@H]1c4[nH]c5ccccc5c4C[C@@]4(O)[C@@H](C2)N(CC2CC2)CC[C@]314 [Naltrindole hydrochloride]
read-out: Replicate_1
  inhibition at 5 µM: 3.59%
read-out: Replicate_2
  inhibition at 5 µM: 2.54%
read-out: mean
  inhibition at 5 µM: 3.06%

## c1ccc2c(CC3=NCCN3)cccc2c1 [Naphazoline hydrochloride]
[10]
  inhibition at 5 µM: 4.49%
[11]
  inhibition at 5 µM: 4.4%
[12]
  inhibition at 5 µM: 4.59%

## CN(C)C(=O)Oc1cccc([N+](C)(C)C)c1 [Neostigmine bromide]
[10]
  inhibition at 5 µM: 5.51%
[11]
  inhibition at 5 µM: 4.9%
[12]
  inhibition at 5 µM: 6.13%

## O=C(CCNNC(=O)c1ccncc1)NCc1ccccc1 [Nialamide]
[1]
  inhibition at 5 µM: 3.19%
[2]
  inhibition at 5 µM: 4.27%
[3]
  inhibition at 5 µM: 2.12%

## COC(=O)C1=C(C)NC(C)=C(C(=O)OCCN(C)Cc2ccccc2)C1c1cccc([N+](=O)[O-])c1 (stereo not drawn) [Nicardipine hydrochloride]
Sheet LOPAC_screen_w_protease, primary screen with protease, compound at 5 µM, mean of two replicates, read-out: mean
  inhibition at 5 µM: 2.73%
Sheet LOPAC_screen_w_protease, primary screen with protease, compound at 5 µM, replicate 1, read-out: Replicate_1
  inhibition at 5 µM: 2.03%
Sheet LOPAC_screen_w_protease, primary screen with protease, compound at 5 µM, replicate 2, read-out: Replicate_2
  inhibition at 5 µM: 3.42%
